Reference: US11459410B2, “High-purity amphipathic arylsulfonic acid amine salt vinyl monomer and copolymer thereof” (TOSOH FINECHEM CORPORATION, priority 2017, dated 2022)
Read-outs that look alike come from different tables or passages of the source.

Tests used:
[1] = Evaluation 1 (Solubility): saturation solubility in water, THF, NMP and toluene; format: physicochemical; settings: for Solubility NMP: N-methylpyrrolidone; for Solubility NMP / Solubility THF / Solubility Toluene / Solubility Water: 25° C., saturation solubility; for Solubility THF: tetrahydrofuran
Description: 2 g each of water, tetrahydrofuran (THF), N-methylpyrrolidone (NMP), and toluene were added to glass screw tube bottles. Small portions of styrenesulfonic acid salts were added thereto at 25° C., and the solubilities thereof were observed while shaking the bottles by hand. In each case, the point at which the solid started to remain was determined to be saturation solubility, and the solubility was calculated by the following Equation. Solubility (wt %)=A/(S+A)×100
A: Weight of amine added (g)

[2] = Evaluation 2 (Storage Stability): accelerated test of polymerization stability of the solid at 60° C.; settings: for Comprehensive Evaluation (storage stability): sealed bottle, one week
Description: 2.0 g of the solid of styrenesulfonic acid salt was added to glass screw tube bottle, and the bottle was sealed with a plug. Then, the bottle was placed in a box dryer at 60° C., and an accelerated test of polymerization stability was performed.
Sampling was performed every other day for a total of one week to check properties, odor, pH change, and the progress of polymerization by heat.
TOASS was dissolved in dimethylformamide and subjected to GPC analysis using a 10 mmol/L lithium bromide dimethylformamide solution as eluent.

Row | Solubility in water (in words) [1] | Properties on the first day of evaluation ([2]; solid, 60° C., first day) | Solubility (in words) [1] | Molecule | Monomer (area %), after one week ([2]; GPC, solid, 60° C.) [area %] | Odor, after one week ([2]; solid, 60° C.) | Solubility NMP [1] | Solubility (in words) ([1]; overall, Evaluation 1) | Solubility THF [1] | Solubility Toluene [1] | Solubility Water ([1]; water) | Solubility in an organic solvent (in words) ([1]; organic solvent) | Solubility in water (in words) ([1]; water) | Monomer (area %), before start of reaction ([2]; GPC, before start of the 60° C. test) [area %] | Odor, before start of reaction ([2]; before start of the 60° C. test) | Comprehensive Evaluation (storage stability) ([2]; solid, 60° C.)
1 | poor water solubility | yellow translucent plastic form |  | C=Cc1ccc(S(=O)(=O)O)cc1.CCCCCCCCN(CCCCCCCC)CCCCCCCC [TOASS, parastyrenesulfonic acid n-trioctylamine, reference compound] | 0.00 | Yes |  |  |  |  |  |  |  |  |  | 
2 |  |  |  | parastyrenesulfonic acid dicyclohexylamine salt [DCHASS, reference compound] |  |  | ∘ (Easily soluble (10 wt % or more)) | did not have sufficient solubility | x (Insoluble (1 wt % or less)) | x (Insoluble (1 wt % or less)) | x (Insoluble (1 wt % or less)) |  |  |  |  | 
3 |  |  |  | parastyrenesulfonic acid N,N-dimethylcyclohexylamine salt [CHASS] | 97.24 | No | ∘ (Easily soluble (10 wt % or more)) |  | ∘ (Easily soluble (10 wt % or more)) | Δ (Soluble (1 to 10 wt %)) | ∘ (Easily soluble (10 wt % or more)) | sufficient solubility in an organic solvent | soluble in water | 100 | No | ∘
4 |  |  |  | parastyrenesulfonic acid N,N-diisopropylethylamine salt [DIPEASS] | 92.40 | No | ∘ (Easily soluble (10 wt % or more)) |  | Δ (Soluble (1 to 10 wt %)) | Δ (Soluble (1 to 10 wt %)) | ∘ (Easily soluble (10 wt % or more)) |  |  |  |  | ∘
5 |  |  | did not have sufficient solubility | C=Cc1ccc(S(=O)(=O)O)cc1.CCCCCCCCN [MOASS, parastyrenesulfonic acid n-monooctylamine salt, reference compound] | 92.20 | No |  |  |  |  |  |  |  |  |  | 
